Experimental data taken from patent US20040142405A1, “Method of detecting drug resistance” (priority 2003, published 2004).
Like-named read-outs stand apart in the source and are kept apart here.

Key:
[1] = target: T1, HIV-1 viral protease (PR) (Human immunodeficiency virus type 1 group M subtype B, UniProt P04585); format: biochemical; details: for interfacial electron transfer resistance Ret after biocatalyzed precipitation of (20) (curve f): translation in the presence of saquinavir 1×10^−4 M, 10 min precipitation, non-inhibited mixture 2500 Ω
Experimental: (§1) A conventional three electrode cell, consisting of the modified Au electrode, a glassy carbon auxiliary electrode isolated by a glass frit, and a saturated calomel electrode (SCE) connected to the working volume with a Luggin capillary, was used for the electrochemical measurements. The cell was positioned in a grounded Faradaic cage. Impedance measurements were performed using an electrochemical impedance analyzer (EG&G, model 1025) and potentiostat (EG&G, model 283) connected to a computer (EG&G Software Power Suite 1.03 and 270 for impedance measurements). All electrochemical measurements were performed in 0.1 M phosphate buffer, pH 7.0, as a background electrolyte solution. Faradaic impedance measurements were performed in the presence of 10 mM K3[Fe(CN)6]/K4Fe(CN)6] (1:1) mixture, as a redox probe. Impedance measurements were performed at a bias potential of 0.17 V versus SCE using alternating voltage, 10 mV, in the frequency range of 100 mHz to 10 kHz. The impedance spectra were plotted in the form of complex plane diagrams (Nyquist plots).
The electrodes were rinsed with water, dried, and soaked in a 10 mM solution of the DSP-active ester in DMSO for 30 min at room temperature. The functionalized electrodes were rinsed with DMSO and water and incubated in a 100 μg·m]L^−1 solution of protein G, for 90 min in a phosphate buffer saline solution, pH=7.4, at room temperature, to couple covalently protein G lysine residues to the functionalized electrodes. The protein G-functionalized electrodes were then allowed to interact with the Fc fragment of the anti-CA-antibody, 1 μg·mL^−1, 30 min at room temperature, to yield the sensing interfaces.
(§2) The antibody-functionalized electrode was interacted with varying concentrations of the Gag polyprotein generated in the translation mixture for 60 min. diluted to 1.0 mL in phosphate-buffered saline (PBS) solution, 0.1 M, pH 7.0, at room temperature. After attachment of the respective polyprotein to the sensing interface, the electrode was incubated in the solution of anti-MA or anti-CA (sources were 200-fold diluted) for 30 min at room temperature. After attachment to the respective antibody, the electrode was incubated either in a goat-anti-rabbit-HRP conjugate solution (2.5 μg·mL^−1), for the MA analysis, or in a goat-anti-mouse-HRP conjugate solution (2.5 μg·mL^−1) for the CA analysis, for 30 minutes at room temperature. 4-Chloro-1-naphthol (1) (FIG. 1D) was dissolved initially in ethanol and then the ethanolic stock solution was diluted with 0.1 M phosphate buffer, pH 7.0, to yield the developing solution that included 1×10^−3 M (1) and 2% (v/v) ethanol. The modified electrodes consisting of the HRP-tagged antibody-functionalized electrodes were incubated in the developing solution of (1) for a fixed and controlled time of 10 minutes at room temperature to stimulate the precipitation of (2) (FIG. 1D).
(§3) After incubation of the respective electrodes in the probe solution, the electrodes were rinsed with 0.1 M phosphate buffer, pH 7.0, and introduced into the electrochemical cell for their analyses by Faradaic impedance spectroscopy. It should be noted that after each step the electrode was rinsed thoroughly with buffer solution, pH 7.0, to eliminate any non-specific adsorbates on the electrode. In the microgravimetric quartz crystal microbalance measurements, the various modification and amplification steps, including the rinsing steps, were performed in the flow cell of the QCM apparatus.
(§4) All the RNA preparations were translated in vitro using the “Biotin in vitro translation kit” (Roche 1559951) in the absence or presence of Saquinavir (Ro 31-8959). Reactions were performed in 50 μL, according to the manufacturer's instructions, using DEPC-treated water. The PR inhibitor Saquinavir was dissolved in 1M NaCl in the DEPC-treated water, and was added to reaction mixtures before starting the synthesis.

[2] = target: T1, HIV-1 viral protease (PR); format: biochemical
Experimental: as §2, §3, §4

[3] = target: protease encoded by the wild-type viral RNA (HIV-1 PR) (Human immunodeficiency virus type 1 group M subtype B, UniProt P04585); format: biochemical
Experimental: as §1
The antibody-functionalized electrode was interacted with varying concentrations of the Gag polyprotein generated in the translation mixture for 60 min. diluted to 1.0 mL in phosphate-buffered saline (PBS) solution, 0.1 M, pH 7.0, at room temperature. […]

G48V mutated PR = target: T2, G48V mutated PR (Human immunodeficiency virus type 1 group M subtype B, UniProt P12497, G536V); assay: Four-path impedance analysis (FIG. 5) of proteins translated from RNA of the HIV-1 G48V mutant; format: biochemical, HIV-1 (NL4-3)
T2 construct: a virus encoded protease (PR) which is one of the individual proteins making up the uncleaved polyprotein; made in house; host or cells: cell-free in vitro translation (Biotin in vitro translation kit, Roche 1559951) of RNA from the media of cultured cells infected with HIV-1 G48V
Experimental: as §1
as §2, with “The modified electrodes consisting of the HRP-tagged antibody-functionalized electrodes were incubated in the developing solution of (1) for a fixed and controlled time of 10 minutes at room temperature to stimulate the precipitation of (2) (FIG. 1D).” left out

viral PR = viral PR (Human immunodeficiency virus type 1 group M subtype B, UniProt P04585); format: biochemical; details: RNA of HIV-1 infected cultured cells, increased concentrations of saquinavir, FIG. 8
Experimental: as §2
All the RNA preparations were translated in vitro using the “Biotin in vitro translation kit” (Roche 1559951) in the absence or presence of Saquinavir (Ro 31-8959). […]

[4] = test system: viral PR from patients' plasma HIV RNA; assay: Four-path impedance analysis (FIG. 5) of RNA extracted from blood samples of AIDS patients treated with saquinavir; format: biochemical; details: for α = Ret^B(1)/Ret^A(1): CA units, anti-CA; for β = Ret^B(2)/Ret^A(2): MA units, anti-MA, β≈1.0 drug resistant, β<1 drug sensitive
Experimental: Plasma was obtained from consenting donors following removal of blood cells by centrifugation for 5 minutes at 3,000 rpm. The plasma was 3-fold diluted with PBS, and viral particles were peletted by centrifuging the volume for 45 minutes at 45,000 rpm in a Backman centrifuge (SW 50.1 rotor). The viral pellets were suspended in 1 mL TRIzol reagent (Gibco BRL) containing 5-10 μg of tRNA (Sigma) as carrier and RNA was extracted according to the manufacturer's instructions.
All the RNA preparations were translated in vitro using the “Biotin in vitro translation kit” (Roche 1559951) in the absence or presence of Saquinavir (Ro 31-8959). Reactions were performed in 50 μL, according to the manufacturer's instructions, using DEPC-treated water. The PR inhibitor Saquinavir was dissolved in 1M NaCl in the DEPC-treated water, and was added to reaction mixtures before starting the synthesis. The reaction mixtures were incubated for 90 min at 30° C. and the reactions were halted by placing in ice or storage at −75° C. until further use in the electrochemical measurements.
An extracted RNA specimen 100 is subdivided into two samples, A 102 and B 104. While sample A is subjected to in vitro translation in the presence of the PI, sample B is translated in the absence of the PI. Each of the translation mixtures is then further divided into two equal sub-samples, sample A into sub-samples A(1) 106 and A(2) 108, and sample B into sub-samples B(1) 110 and B(2) 112. The sub-samples A(1) and B(1) are subjected to the analysis of the total CA units using anti-CA, according to FIG. 1B, route (ii). The sub-samples A(2) and B(2) utilize the anti-MA antibody to assess content of polyprotein in the respective samples, according to FIG. 1A and FIG. 1B, route (i). Note that the ratio of the interfacial electron transfer resistances generated upon the precipitation of the precipitate (20) in sub-samples A(2) and B(2) reflect the content of polyprotein generated under PR inhibition vs. the unprocessed (=unhydrolyzed) polyprotein in the system.
The ratio of electron transfer resistances of paths A(1) and B(1) should be independent of the PI, and its value should be ≈1. This ratio provides an internal standard for the effectiveness of translations in the entire set of experiments. Thus, the four-path analysis scheme of the mRNA translation processes eliminates the background signal of unprocessed polyproteins in the absence of the inhibitor. The assay also abrogates the difference in the affinities of anti-CA and anti-MA to the respective antigens. Since the original sample is subdivided into equivalent sub-samples prior to translations, the problem of different RNA contents in analysis paths is cancelled out.
The analysis scheme outlined in FIG. 5 was applied to detect drug resistance in AIDS patients, treated with saquinavir. In this process, we expect that the analysis of the CA-units by the anti-CA antibodies will lead to an electron transfer resistance ratio of paths A(1) 106 and B(1) 110 in FIG. 5, that corresponds to α=Ret^B(1)/Ret^A(1)≈1.0 whereas the ratio of electron transfer resistance analyzing the MA-units with the anti-MA antibody of paths B(2) 112 and A(2) 108 in FIG. 5 should reveal the value β=Ret^B(2)/Ret^A(2)≈1.0 for drug resistant patients, and β<1 for drug sensitive patients.

AIDS patients = details: cited from earlier work
[5] = translation of bacterial RNA in the presence of saquinavir 1×10^−4 M

CC(C)(C)NC(=O)[C@@H]1C[C@@H]2CCCC[C@@H]2CN1C[C@@H](O)[C@H](Cc1ccccc1)NC(=O)[C@H](CC(N)=O)NC(=O)c1ccc2ccccc2n1 [saquinavir]
ΔRet upon precipitation, non-inhibited mixture lower than inhibited translation mixture ([1]; identical quantities of mRNA, absence vs presence of Saquinavir): 4 fold | increase in interfacial electron transfer resistance ΔRet upon the precipitation of (20) ([1]; inhibited translation mixture, non-inhibited mixture ΔRet=500 Ω): ≈ 2000 Ω | interfacial electron transfer resistance Ret after biocatalyzed precipitation of (20) (curve f) [1]: 5000 Ω | interfacial electron transfer resistance Ret after biocatalyzed precipitation of (20) (curve f) ([1]; listed as Saquinavir): ca. 5100 Ω | electron transfer resistance Ret after addition of anti-anti-MA-HRP conjugate (curve e) [1, 5]: 3000 Ω | interfacial electron-transfer resistance Ret after association of anti-MA-Ab (curve d) [1, 5]: 2800 Ω | interfacial electron-transfer resistance after binding of the Gag polyprotein to anti-CA-Ab (curve c) [1, 5]: 2100 Ω | Anti-MA Δf [2]: −80 Hz | Anti-anti MA/HRP Δf [2]: −140 Hz | Precipitation of (2) Δf [2]: −100 Hz | frequency change upon treatment of the surface with the translated proteins [2]: −50 Hz | ratio Ret^B(2)/Ret^A(2) [3]: 0.43 | electron transfer resistance Ret, path A(2), anti-MA analysis (curve d) ([3]; wild type virus, saquinavir 1×10^−4 M, non-inhibited path B(2) Ret=6): 14 kω | effect of the inhibitor on the protease activity (G48V mutated PR): no effect of the inhibitor is observed | interfacial resistance Ret, path A(2) with the inhibitor (curve d) (G48V mutated PR; identical to path B(2) without inhibitor): ≈ 11 kΩ | ratio Ret^B(2)/Ret^A(2) (G48V mutated PR; without vs with inhibitor): 1 | interfacial electron transfer resistance as the concentration of the inhibitor increases (viral PR): enhanced | α = Ret^B(1)/Ret^A(1) ([4]; Patient # 1): 1.17 ± 0.03 | β = Ret^B(2)/Ret^A(2) ([4]; Patient # 1): 0.87 ± 0.04 | α = Ret^B(1)/Ret^A(1) ([4]; Patient # 2): 1.07 ± 0.03 | β = Ret^B(2)/Ret^A(2) ([4]; Patient # 2): 1.1 ± 0.04 | α = Ret^B(1)/Ret^A(1) ([4]; Patient # 3): 1.04 ± 0.03 | β = Ret^B(2)/Ret^A(2) ([4]; Patient # 3): 0.75 ± 0.04 | α = Ret^B(1)/Ret^A(1) ([4]; Patient # 4): 1.10 ± 0.03 | β = Ret^B(2)/Ret^A(2) ([4]; Patient # 4): 0.79 ± 0.04 | α = Ret^B(1)/Ret^A(1) ([4]; Patient # 5): 1.0 ± 0.03 | β = Ret^B(2)/Ret^A(2) ([4]; Patient # 5): 1.07 ± 0.04 | clinical condition under treatment (AIDS patients; all other patients (#1, #3, #4), subjective statements of the physicians): balanced conditions | clinical response to treatment (AIDS patients; patients #2 and #5, subjective statements of the physicians): did not react to the treatment
